Measured values: patent publication US5736546A, “1,4-(diphenlyalkyl) piperazine derivatives” (Santen Pharmaceutical Co., Ltd., priority 1993, dated 1998)
pIC50: −log10 of the molar value. Structures can show the parent of a compound that is named as a salt.

Experiments:
[1] = tested on: amount of acetylcholine in rat brain; assay: Increasing effects on the amount of intracerebral acetylcholine (intracerebral microdialysis method); assay type: in vivo, male Wistar rat; conditions: oral, 30 minutes after administration, averages of 3-7 samples
Description: (The New England Journal of Medicine, 315, 1241-1245 (1986)), the amount of acetylcholine in rat brain was then measured according to the report of Matsuno et al. (Brain Research, 575, 315-319 (1992)). […] 2. […] (The New England Journal of Medicine, 315, 1241-1245 (1986)), an experiment was performed to examine effects of the compounds of this invention on the amount of acetylcholine in rat brain. (Experimental Method) The amount of acetylcholine in rat brain was measured by the following method using intracerebral microdialysis method according to the report of Matsuno et al. (Brain Research, 575, 315-319 (1992)). […] The amount of acetylcholine in rat brain was measured with time. When it became constant, the test compound suspended in 1% methylcellulose solution was administered orally to the rat, and the amount of intracerebral acetylcholine was measured. The amount of acetylcholine in rat brain (average of six samples) to which the test compound was not administered was used as a control.

[2] = target: μ receptors (Rattus norvegicus, UniProt P33535)
μ receptors, sequence (P33535 whole entry): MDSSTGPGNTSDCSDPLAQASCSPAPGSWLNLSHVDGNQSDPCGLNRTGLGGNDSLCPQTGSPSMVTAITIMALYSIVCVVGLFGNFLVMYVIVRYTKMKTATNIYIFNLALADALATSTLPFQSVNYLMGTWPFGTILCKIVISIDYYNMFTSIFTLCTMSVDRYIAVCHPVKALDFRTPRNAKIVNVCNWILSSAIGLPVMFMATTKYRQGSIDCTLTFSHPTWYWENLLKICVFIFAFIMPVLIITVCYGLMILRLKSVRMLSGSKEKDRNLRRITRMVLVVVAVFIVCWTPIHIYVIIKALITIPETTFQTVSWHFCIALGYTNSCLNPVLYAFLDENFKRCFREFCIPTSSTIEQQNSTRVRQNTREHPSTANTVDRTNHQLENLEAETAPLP

[3] = target: T1, sigma receptors (Cavia porcellus, UniProt Q60492); assay: biochemical; parameters: species or system Hartley guinea pig; conditions: read-out: IC50 (inhibition of specific binding of [3H](+)-SKF-10047)
T1 construct: A brain of a Hartley guinea pig (weight: 300-400 g) was excised; from tissue; host or cells: Hartley guinea pig brain, membrane preparation
T1 sequence (Q60492 whole entry): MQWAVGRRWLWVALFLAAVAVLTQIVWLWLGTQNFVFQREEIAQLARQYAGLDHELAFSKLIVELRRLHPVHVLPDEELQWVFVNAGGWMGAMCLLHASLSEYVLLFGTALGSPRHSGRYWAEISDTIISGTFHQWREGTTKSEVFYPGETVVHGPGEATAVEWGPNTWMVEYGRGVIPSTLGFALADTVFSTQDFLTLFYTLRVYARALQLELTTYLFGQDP

[4] = target: T1, sigma receptors; assay: Experiment using [3H](+)-PTZ as a labeled ligand (affinity for sigma receptors); parameters: species or system Hartley guinea pig; conditions: [3H](+)-PTZ 5 nM; guinea pig brain membrane; 37° C., 150 minutes; averages of 4-11 samples; read-out: IC50 (inhibition of specific binding of [3H](+)-PTZ)
Description: Experiment Using [^3 H](+)-PTZ as a Labeled Ligand
Affinities for sigma receptors were determined by the following method using [^3 H](+)-PTZ as a labeled ligand according to the report of DeHaven-Hudkins et al. (Eur. I. Pharmacol,, 227, 371-378 (1992)).

Row | SMILES | amount of acetylcholine (% control) ([1]; 10 mg/kg) | amount of acetylcholine (% control) ([1]; 20 mg/kg) | pIC50 [2] | pIC50 ([3]; [3H](+)-SKF-10047 5 nM, guinea pig brain membrane, 25° C., 30 minutes) | amount of acetylcholine (% control) ([1]; 40 mg/kg) | pIC50 [4] | pIC50 [3] | amount of acetylcholine (% control) ([1]; 80 mg/kg)
1 | COc1ccc(CCN2CCN(CCCc3ccccc3)CC2)cc1OC.Cl.Cl [compound No. 1-1, 1-[2-(3,4-Dimethoxyphenyl)ethyl]-4-(3-phenylpropyl)piperazine dihydrochloride] | 154.3 % control | 170.0 % control | < 5.00 |  |  |  |  | 
2 | COc1ccc(CCN2CCN(Cc3ccccc3)CC2)cc1OC [compound No. 1-3, 1-[2-(3,4-Dimethoxyphenyl)ethyl]-4-benzylpiperazine dihydrochloride] |  |  | < 5.00 | 8.37 |  |  |  | 
3 | COc1ccc(CCCN2CCN(CCCc3ccccc3)CC2)cc1OC.Cl.Cl [compound No. 1-6, 1-[3-(3,4-Dimethoxyphenyl)propyl]-4-(3-phenylpropyl)piperazine dihydrochloride] |  | 146.1 % control |  |  | 176.9 % control | 7.83 |  | 
4 | COc1ccc(CCN2CCN(CCc3ccccc3)CC2)cc1OC [compound No. 1-2, 1-[2-(3,4-Dimethoxyphenyl)ethyl]-4-(2-phenylethyl)piperazine dihydrochloride] |  |  | < 5.00 |  |  | 7.74 | 8.03 | 
5 | COc1ccc(CCN2CCN(CCCCc3ccccc3)CC2)cc1OC.Cl.Cl [compound No. 1-4, 1-[2-(3,4-Dimethoxyphenyl)ethyl]-4-(4-phenylbutyl)piperazine dihydrochloride] |  |  |  |  | 146.2 % control | 7.97 |  | 164.9 % control
